In US20170334899A1, “AMINO-SUBSTITUTED ISOTHIAZOLES” (Bayer Pharma Aktiengesellschaft, priority 2014, published 2017):

Experiments:
CDK2/CycE = biological target: T1, CDK2/CycE (Homo sapiens, UniProt P24941); test: CDK2/CycE kinase assay (TR-FRET); format: biochemical; settings: avg, read-out: CDK2 avg (IC50 [mol/l])
T1 construct: GST; purchased ProQinase GmbH (Freiburg, Germany); host or cells: insect cells (Sf9)
From the text: CDK2/CycE -inhibitory activity of compounds of the present invention was quantified employing the CDK2/CycE TR-FRET assay as described in the following paragraphs.
Recombinant fusion proteins of GST and human CDK2 and of GST and human CycE, expressed in insect cells (Sf9) and purified by Glutathion-Sepharose affinity chromatography, were purchased from ProQinase GmbH (Freiburg, Germany). As substrate for the kinase reaction biotinylated peptide biotin-Ttds-YISPLKSPYKISEG (C-terminus in amid form) was used which can be purchased e.g. form the company JERINI peptide technologies (Berlin, Germany).
For the assay 50 nl of a 100fold concentrated solution of the test compound in DMSO was pipetted into a black low volume 384we11 microtiter plate (Greiner Bio-One, Frickenhausen, Germany), 2 μl of a solution of CDK2/CycE in aqueous assay buffer [50 mM Tris/HCl pH 8.0, 10 mM MgCl2, 1.0 mM dithiothreitol, 0.1 mM sodium ortho-vanadate, 0.01% (v/v) Nonidet-P40 (Sigma)] were added and the mixture was incubated for 15 min at 22° C. to allow pre-binding of the test compounds to the enzyme before the start of the kinase reaction. Then the kinase reaction was started by the addition of 3 μl of a solution of adenosine-tri-phosphate (ATP, 16.7 μM=>final conc. in the 5 μl assay volume is 10 μM) and substrate (1.25 μM=>final conc. in the 5 μl assay volume is 0.75 μM) in assay buffer and the resulting mixture was incubated for a reaction time of 25 min at 22° C. The concentration of CDK2/CycE was adjusted depending of the activity of the enzyme lot and was chosen appropriate to have the assay in the linear range, typical concentrations were in the range of 130 ng/ml. The reaction was stopped by the addition of 5 μl of a solution of TR-FRET detection reagents (0.2 μM streptavidine-XL665 [Cisbio Bioassays, Codolet, France] and 1 nM anti-RB(pSer807/pSer811)-antibody from BD Pharmingen [#558389] and 1.2 nM LANCE EU-W1024 labeled anti-mouse IgG antibody [Perkin-Elmer, product no. AD0077, as an alternative a Terbium-cryptate-labeled anti-mouse IgG antibody from Cisbio Bioassays can be used]) in an aqueous EDTA-solution (100 mM EDTA, 0.2% (w/v) bovine serum albumin in 100 mM HEPES/NaOH pH 7.0).
(§1) The resulting mixture was incubated 1 h at 22° C. to allow the formation of complex between the phosphorylated biotinylated peptide and the detection reagents. Subsequently the amount of phosphorylated substrate was evaluated by measurement of the resonance energy transfer from the Eu-chelate to the streptavidine-XL. Therefore, the fluorescence emissions at 620 nm and 665 nm after excitation at 350 nm was measured in a TR-FRET reader, e.g. a Rubystar (BMG Labtechnologies, Offenburg, Germany) or a Viewlux (Perkin-Elmer). The ratio of the emissions at 665 nm and at […] was taken as the measure for the amount of phosphorylated substrate. The data were normalised (enzyme reaction without inhibitor=0% inhibition, all other assay components but no enzyme=100% inhibition).

[1] = biological target: T2, catalytic domain of human Bub1 (amino acids 704-1085) (Homo sapiens, UniProt O43683); test: Bub1 kinase assay (TR-FRET); format: biochemical; settings: 10 μM ATP, avg, read-out: Bub1 avg (IC50 [mol/l])
T2 construct: catalytic domain of human Bub1 (amino acids 704-1085); His6 (N); made in house; host or cells: insect cells (Hi5)
From the text: Bub1-inhibitory activity of compounds of the present invention was quantified employing the Bub1 TR-FRET assay as described in the following paragraphs.
N-terminally His6-tagged recombinant catalytic domain of human Bub1 (amino acids 704-1085), expressed in insect cells (Hi5) and purified by Ni-NTA affinity chromatography and subsequent size exclusion chromatography, was used as enzyme. As substrate for the kinase reaction the biotinylated peptide biotin-Ahx-VLLPKKSFAEPG (C-terminus in amid form) was used which can be purchased e.g. form the company Biosyntan (Berlin, Germany).
For the assay 50 nl of a 100fold concentrated solution of the test compound in DMSO was pipetted into a black low volume 384well microtiter plate (Greiner Bio-One, Frickenhausen, Germany), 2 μl of a solution of Bub1 in aqueous assay buffer [50 mM Tris/HCl pH 7.5, 10 mM magnesium chloride (MgCl2), 200 mM potassium chloride (KCl), 1.0 mM dithiothreitol (DTT), 0.1 mM sodium ortho-vanadate, 1% (v/v) glycerol, 0.01% (w/v) bovine serum albumine (BSA), 0.005% (v/v) Trition X-100 (Sigma), 1× Complete EDTA-free protease inhibitor mixture (Roche)] were added and the mixture was incubated for 15 min at 22° C. to allow pre-binding of the test compounds to the enzyme before the start of the kinase reaction. Then the kinase reaction was started by the addition of 3 μl of a solution of adenosine-tri-phosphate (ATP, 16.7 μM=>final conc. in the 5 μl assay volume is 10 μM) and substrate (1.67 μM=>final conc. in the 5 μl assay volume is 1 μM) in assay buffer and the resulting mixture was incubated for a reaction time of 60 min at 22° C. The concentration of Bub1 was adjusted depending of the activity of the enzyme lot and was chosen appropriate to have the assay in the linear range, typical concentrations were in the range of 200 ng/ml. The reaction was stopped by the addition of 5 μl of a solution of TR-FRET detection reagents (0.2 μM streptavidine-XL665 [Cisbio Bioassays, Codolet, France] and 1 nM anti-phosho-Serine antibody [Merck Millipore, cat. #35-001] and 0.4 nM LANCE EU-W1024 labeled anti-mouse IgG antibody [Perkin-Elmer, product no. AD0077, as an alternative a Terbium-cryptate-labeled anti-mouse IgG antibody from Cisbio Bioassays can be used]) in an aqueous EDTA-solution (50 mM EDTA, 0.2% (w/v) bovine serum albumin in 100 mM HEPES pH 7.5).
as §1, with “or Pherastar (both from BMG” for “(BMG”

T2 sequence (O43683 704-1085): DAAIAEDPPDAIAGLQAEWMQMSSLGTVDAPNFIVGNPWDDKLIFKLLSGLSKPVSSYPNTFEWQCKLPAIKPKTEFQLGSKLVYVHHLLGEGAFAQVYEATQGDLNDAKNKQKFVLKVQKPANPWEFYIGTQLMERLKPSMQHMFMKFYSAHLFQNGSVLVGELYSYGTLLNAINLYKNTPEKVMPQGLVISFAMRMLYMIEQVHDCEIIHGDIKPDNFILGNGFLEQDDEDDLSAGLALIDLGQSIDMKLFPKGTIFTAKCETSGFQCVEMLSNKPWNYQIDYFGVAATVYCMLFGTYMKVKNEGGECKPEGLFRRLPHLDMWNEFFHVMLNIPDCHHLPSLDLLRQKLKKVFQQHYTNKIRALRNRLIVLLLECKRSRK

| SMILES | IC50 (CDK2/CycE) [µM] | IC50 [1] [µM] |
| --- | --- | --- |
| CCNS(=O)(=O)c1ccc(NC(=O)c2c(C)nsc2Nc2cnc3ccccc3n2)cc1 [Example 116, N-[4-(Ethylsulfamoyl)phenyl]-3-methyl-5-(quinoxalin-2-ylamino)-1,2-thiazole-4-carboxamide] | ≥ 20 | ≥ 20 |
| Cc1nsc(Nc2cnc3ccccc3n2)c1C(=O)Nc1ccc(Oc2cccc(C(F)(F)F)c2)nc1 [Example 117, 3-Methyl-5-(quinoxalin-2-ylamino)-N-{6-[3-(trifluoromethyl)phenoxy]pyridin-3-yl}-1,2-thiazole-4-carboxamide] | ≥ 20 | ≥ 20 |
| Cc1nsc(Nc2ccc(C#N)cn2)c1C(=O)Nc1ccc(Oc2cccc(C(F)(F)F)c2)nc1 [Example 118, 5-[(5-Cyanopyridin-2-yl)amino]-3-methyl-N-{6-[3-(trifluoromethyl)phenoxy]pyridin-3-yl}-1,2-thiazole-4-carboxamide] | ≥ 20 | ≥ 20 |
| Cc1nsc(Nc2cc(C#N)ccn2)c1C(=O)Nc1ccc(Oc2cccnc2)nc1 [Example 119, 5-[(4-Cyanopyridin-2-yl)amino]-3-methyl-N-[6-(pyridin-3-yloxy)pyridin-3-yl]-1,2-thiazole-4-carboxamide] | ≥ 20 | ≥ 20 |
| Cc1nsc(Nc2cnc(C(F)(F)F)cn2)c1C(=O)Nc1ccc(OCC2CCN(CC(F)F)C2)nc1 (stereo not shown) [Example 122, N-(6-{[1-(2,2-difluoroethyl)pyrrolidin-3-yl]methoxy}pyridin-3-yl)-3-methyl-5-{[5-(trifluoromethyl)pyrazin-2-yl]amino}-1,2-thiazole-4-carboxamide] | ≥ 20 | ≥ 20 |
| Cc1nsc(Nc2cnc(C(F)(F)F)cn2)c1C(=O)Nc1ccc(OCC2CCN(CC(F)(F)F)C2)nc1 (stereo not shown) [Example 123, 3-Methyl-N-(6-{[1-(2,2,2-trifluoroethyl)pyrrolidin-3-yl]methoxy}pyridin-3-yl)-5-{[5-(trifluoromethyl)pyrazin-2-yl]amino}-1,2-thiazole-4-carboxamide] | ≥ 20 | ≥ 20 |
| Cc1nsc(Nc2cnc(C(F)(F)F)cn2)c1C(=O)Nc1ccc(OCC2CCN(CCC(F)(F)F)C2)nc1 (stereo not shown) [Example 124, 3-methyl-5-{[5-(trifluoromethyl)pyrazin-2-yl]amino}-N-(6-{[1-(3,3,3-trifluoropropyl)pyrrolidin-3-yl]methoxy}pyridin-3-yl)-1,2-thiazole-4-carboxamide] | ≥ 20 | ≥ 20 |
| Cc1nsc(Nc2cnc(C(F)(F)F)cn2)c1C(=O)Nc1ccc(OC[C@@H]2CCN(CC(F)F)C2)nc1 [Example 127, N-(6-{[(3R)-1-(2,2-difluoroethyl)pyrrolidin-3-yl]methoxy}pyridin-3-yl)-3-methyl-5-{[5-(trifluoromethyl)pyrazin-2-yl]amino}-1,2-thiazole-4-carboxamide] | > 20 | ≥ 20 |
| Cc1nsc(Nc2cnc(C(F)(F)F)cn2)c1C(=O)Nc1ccc(OC[C@@H]2CCN(CC(F)(F)F)C2)nc1 [Example 128, 3-Methyl-N-(6-{[(3R)-1-(2,2,2-trifluoroethyl)pyrrolidin-3-yl]methoxy}pyridin-3-yl)-5-{[5-(trifluoromethyl)pyrazin-2-yl]amino}-1,2-thiazole-4-carboxamide] | > 20 | > 20 |
| Cc1nsc(Nc2cnc(C(F)(F)F)cn2)c1C(=O)Nc1ccc(OC[C@@H]2CCN(CCC(F)(F)F)C2)nc1 [Example 129, 3-Methyl-5-{[5-(trifluoromethyl)pyrazin-2-yl]amino}-N-(6-{[(3R)-1-(3,3,3-trifluoropropyl)pyrrolidin-3-yl]methoxy}pyridin-3-yl)-1,2-thiazole-4-carboxamide] | > 20 | > 20 |
| Cc1nsc(Nc2cnc(C(F)(F)F)cn2)c1C(=O)Nc1ccc(OC[C@H]2CCN(CC(F)F)C2)nc1 [Example 132, N-(6-{[(3S)-1-(2,2-difluoroethyl)pyrrolidin-3-yl]methoxy}pyridin-3-yl)-3-methyl-5-{[5-(trifluoromethyl)pyrazin-2-yl]amino}-1,2-thiazole-4-carboxamide] | > 20 | > 20 |
| Cc1nsc(Nc2cnc(C(F)(F)F)cn2)c1C(=O)Nc1ccc(OC[C@H]2CCN(CCC(F)(F)F)C2)nc1 [Example 134, 3-Methyl-5-{[5-(trifluoromethyl)pyrazin-2-yl]amino}-N-(6-{[(3S)-1-(3,3,3-trifluoropropyl)pyrrolidin-3-yl]methoxy}pyridin-3-yl)-1,2-thiazole-4-carboxamide] | > 20 | > 20 |
| Cc1nsc(Nc2cnc(C(F)(F)F)cn2)c1C(=O)Nc1ccc(O[C@@H]2CCN(CC(F)F)C[C@@H]2F)nc1 [Example 137, N-(6-{[(3S,4R)-1-(2,2-difluoroethyl)-3-fluoropiperidin-4-yl]oxy}pyridin-3-yl)-3-methyl-5-{[5-(trifluoromethyl)pyrazin-2-yl]amino}-1,2-thiazole-4-carboxamide] | > 20 | > 20 |
| Cc1nsc(Nc2cnc(C(F)(F)F)cn2)c1C(=O)Nc1ccc(O[C@@H]2CCN(CC(F)(F)F)C[C@@H]2F)nc1 [Example 138, N-(6-{[(3S,4R)-3-fluoro-1-(2,2,2-trifluoroethyl)piperidin-4-yl]oxy}pyridin-3-yl)-3-methyl-5-{[5-(trifluoromethyl)pyrazin-2-yl]amino}-1,2-thiazole-4-carboxamide] | > 20 | > 20 |
